Here are results for 32 compounds from patent publication US20240246978A1, “PHENYLDIHYDROPYRIMIDINE COMPOUND AND USE THEREOF” (HEPAGENE THERAPEUTICS (HK) LIMITED, priority 2021, published 2024).

For the first test, the system named is Hepatitis B virus (HBV). Kind of test: In vitro anti-HBV activity by q-PCR assay of HBV DNA in HepG2.2.15 cell supernatant. It counts as cell-based. Particulars: HepG2.2.15 cells; inhibition of HBV DNA copies in supernatant by qPCR; compound renewed after 3 days, 3 more days; 0.5% DMSO; read-out: EC50. The procedure: Compound preparation and cell culture: The test compounds were prepared as 20 mM storage solution using the appropriate volume of dimethyl sulfoxide (DMSO) (Sigma-D2650) according to the relative molecular weight and mass.
The growth of HepG2.2.15 cells (Wuhan Institute of Virology, Chinese Academy of Sciences) in the culture flasks were observed under a microscope, the cells were digested with trypsin (Invitrogen-25300062), and resuspended with cell culture medium (DMEM/F12, Invitrogen-11330032; containing 2% fetal bovine serum FBS, HyClone-SV30087.03, 100 U/Ml penicillin, Hyclone-SV30010, 100 μg/mL streptomycin, Hyclone-SV30010, 1% non-essential amino acids, Invitrogen-11140-050, 2 mM L-glutamine, Gibco-35050-061); the cells were counted using a Vi-Cell cell counter and the volume and concentration of cell suspension were adjusted according to the number of cell spreads and the number of cells required per well, and the cell spreading density of the 96-well cell culture plates (Costar-3599) was 60,000 cells/well, 100 μL/well; the cell plates with the cells were placed in a 5% CO2, 37° C. incubator and incubated overnight.
The experiments were set at a starting concentration of 100 μM for the test compound and 20 nM for the reference compound entecavir (ETV, WuXi AppTec), with a 3-fold gradient dilution and 9 concentration points. A 96-well V-bottom plate was used, the corresponding test compounds and reference compounds ETV were diluted to obtain 200× compound source plate; a sterile 2 mL deep-well plate was added with 297 μL of cell culture medium, 3 μL of the compounds in the 200× compound source plate were added to the corresponding deep-well plate, diluted by 100-fold, and mixed well with a pipette tip blowing to obtain a 2× compound plate, and then the plate was sealed with parafilm and then stored in a nitrogen cabinet to be used for replacement of the compounds. The cell plate laid out the day before was took and added with 100 μL of diluted 2× compound to each of the corresponding cell wells with a final concentration of 0.5% DMSO. Example of compound distribution in the cell plate is shown below*:
After the cell plates were reintroduced into a 5% CO2, 37° C. cell incubator for 3 days, the medium was removed from the cell culture plates and 100 μL of cell culture solution was replenished to each well. The 200× compound source plate configured was removed from the nitrogen cabinet, a sterile 2 mL deep-well plate was added with 297 μL of cell culture medium, 3 μL of the compounds in the 200× compound source plate was added to the corresponding deep-well plate, diluted by 100-fold, and mixed well with a pipette tip blowing to obtain a 2× compound plate. To the cell wells containing 100 μL of medium, 100 μL of diluted 2× compound was added, with a final concentration of DMSO of 0.5%; the cell plates were reintroduced into 5% CO2 and incubated in a 37° C. cell incubator for 3 days.
The 96-well cell plate was removed from the incubator, centrifuged at 3,000 rpm for 2 min with centrifuge (Beckman, Allegra-X15R), and the cell supernatant was collected for subsequent HBV DNA extraction. 50 μL of cell culture solution were added to each well in the cell plate, then 50 μL of CellTiter-Glo Detection Reagent (Promega-G7573) were added to each well, and the plate was shaken for 10 min away from light to allow the cells to be lysed; the luminescence value of each well was detected by using an enzyme labeller (BioTek Synergy 2).
HBV DNA Extraction: HBV DNA was extracted from cell supernatants using the QIAamp 96 DNA Blood Kit (Qiagen-51162) as described in the kit instructions; the volume of cell supernatant was 150 μL and the final DNA elution volume was 180 μL. […]
For orientation: Real-time PCR tracks product formation cycle by cycle.
For orientation: EC50 means the midpoint of the concentration-response curve. As to `C#Cc1cc(F)ccc1[C@H]1N=C(c2nccs2)NC(CN2CCN3C(=O)N(CC(C)(C)C(=O)O)C[C@@H]3C2)=C1C(=O)OCC` [SZ-023089], the EC50 is under 50 nM.

Consider `C#Cc1cc(F)ccc1[C@H]1N=C(c2nccs2)NC(CN2[C@@H]3CC(CC(=O)O)C[C@H]2C(F)(F)C3)=C1C(=O)OCC` (some centres unmarked) [SZ-023091], for which the EC50 is under 50 nM.

Regarding `C#Cc1cc(F)ccc1[C@@H]1N=C(c2nccs2)NC(CN2CCO[C@H](/C=C/C(=O)O)C2)=C1C(=O)OCC` [SZ-023093], the EC50 was under 50 nM.

As for `C#Cc1cc(F)ccc1[C@H]1N=C(c2nccs2)NC(CN2CCO[C@H](CCC(=O)O)C2)=C1C(=O)OCC` [SZ-023095], the EC50 was under 50 nM.

With `C#Cc1cc(F)ccc1[C@@H]1N=C(c2nccs2)NC(CN2CCOCC2)=C1C(=O)OCC` [SZ-023115-P1], the EC50 was over 1000 nM.

As for `C#Cc1cc(F)ccc1[C@H]1N=C(c2nccs2)NC(CN2CCOCC2)=C1C(=O)OCC` [SZ-023115-P2], the EC50 is under 50 nM.

The test is the same for the next values; noted with them: Hepatitis B virus, 72 h; HepG2.2.15 cells; inhibition of HBV DNA copies in supernatant by qPCR; compound renewed after 3 days, 3 more days; 0.5% DMSO; read-out: EC50.
As to `C#Cc1cc(F)ccc1C1N=C(c2nccs2)NC(CN2CCN3C(=O)N(CC(C)(C)C(=O)O)C[C@@H]3C2)=C1C(=O)OCC` (mixture of isomers) [SZ-023089RAC], the EC50 is under 50 nM.

On to `C#Cc1cc(F)ccc1C1N=C(c2nccs2)NC(CN2CCO[C@H](/C=C/C(=O)O)C2)=C1C(=O)OCC` (mixture of isomers) [SZ-023093RAC], for which the EC50 was under 50 nM.

As to `C#Cc1cc(F)ccc1C1N=C(c2nccs2)NC(CN2CCO[C@H](CCC(=O)O)C2)=C1C(=O)OCC` (mixture of isomers) [SZ-023095RAC], the concentration giving a half-maximal response (EC50) fell in the range of 50 to 100 nM.

With `C#Cc1cc(F)ccc1C1N=C(c2nccs2)NC(CN2CCOCC2)=C1C(=O)OCC` (racemic) [SZ-023115RAC], the 50% effective concentration (EC50) was under 50 nM.

As to `CCOC(=O)C1=C(CN2CCOCC2)NC(c2nccs2)=NC1c1ccc(F)cc1C#N` (racemic) [SZ-023117RAC], the EC50 was in the range of 50 to 100 nM.

Turning to `C#Cc1c(C2N=C(c3nccs3)NC(CN3CCN4C(=O)N(CC(C)(C)C(=O)O)C[C@@H]4C3)=C2C(=O)OCC)ccc(F)c1F` (some centres unmarked) [SZ-023127], the EC50 was under 50 nM.

In the case of `C#Cc1cc(F)c(F)cc1[C@@H]1N=C(c2nccs2)NC(CN2CCN3C(=O)N(CC(C)(C)C(=O)O)C[C@@H]3C2)=C1C(=O)OCC` [SZ-023129], the EC50 was in the range of 100 to 1000 nM.

As to `[2H]C([2H])([2H])C([2H])([2H])OC(=O)C1=C(CN2CCN3C(=O)N(CC(C)(C)C(=O)O)C[C@@H]3C2)NC(c2nccs2)=N[C@H]1c1cccc(F)c1C#C` [SZ-023133], the EC50 was under 50 nM.

Turning to `[2H]C([2H])([2H])OC(=O)C1=C(CN2CCO[C@H](/C=C/C(=O)O)C2)NC(c2nccs2)=N[C@H]1c1ccc(F)cc1C#C` [SZ-023143], the EC50 was under 50 nM.

Turning to `C#Cc1cc(F)ccc1[C@@H]1N=C(c2nccs2)NC(CN2CCN3C(=O)N(CC(C)(C)C(=O)O)C[C@@H]3C2)=C1C(=O)OC` [SZ-023145], the EC50 is under 50 nM.

Turning to `[2H]C([2H])([2H])OC(=O)C1=C(CN2CCN3C(=O)N(CC(C)(C)C(=O)O)C[C@@H]3C2)NC(c2nccs2)=N[C@H]1c1ccc(F)cc1C#C` [SZ-023147], the EC50 was under 50 nM.

Consider `[2H]C([2H])([2H])C([2H])([2H])OC(=O)C1=C(CN2CCN3C(=O)N(CC(C)(C)C(=O)O)C[C@@H]3C2)NC(c2nccs2)=N[C@H]1c1ccc(F)cc1C#C` [SZ-023149], for which the EC50 is under 50 nM.

With `C#Cc1cc(F)ccc1[C@@H]1N=C(c2nccs2)NC(CN2CCN3C(=O)N(CC(C)(C)C(=O)O)C[C@@H]3C2)=C1C(=O)SC` [SZ-023151], the EC50 lay within 100 to 1000 nM.

On to `C#Cc1cc(F)ccc1[C@@H]1N=C(c2nccs2)NC(CN2CCO[C@H](C3CC3C(=O)O)C2)=C1C(=O)OCC` (some centres unmarked) [SZ-023342], for which the EC50 lay in the range of 50 to 100 nM.

With `C#Cc1cc(Cl)ccc1C1N=C(c2nccs2)NC(CN2CCN3C(=O)N(CC(C)(C)C(=O)O)C[C@@H]3C2)=C1C(=O)OCC` (some centres unmarked) [SZ-023366], the EC50 was under 50 nM.

`C#Cc1cc(C)ccc1C1N=C(c2nccs2)NC(CN2CCN3C(=O)N(CC(C)(C)C(=O)O)C[C@@H]3C2)=C1C(=O)OCC` (some centres unmarked) [SZ-023368]: the EC50 was 100 to 1000 nM.

Turning to `C#Cc1ccccc1C1N=C(c2nccs2)NC(CN2CCN3C(=O)N(CC(C)(C)C(=O)O)C[C@@H]3C2)=C1C(=O)OCC` (some centres unmarked) [SZ-023370], the EC50 was 50 to 100 nM.

In the case of `C#Cc1cc(Cl)ccc1C1N=C(c2nccs2)NC(CN2CCN3C(=O)N(c4ccc(CCC(=O)O)cc4)C[C@@H]3C2)=C1C(=O)OCC` (some centres unmarked) [SZ-023380], the EC50 was under 50 nM.

Regarding `C#Cc1cc(F)ccc1[C@@H]1N=C(c2nccs2)NC(CN2CCN3C(=O)N(c4ccc(CCC(=O)O)cc4)C[C@@H]3C2)=C1C(=O)OCC` [SZ-023384], the EC50 is under 50 nM.

Consider `C#Cc1c(F)cccc1[C@@H]1N=C(c2nccs2)NC(CN2CCN3C(=O)N(c4ccc(CCC(=O)O)cc4)C[C@@H]3C2)=C1C(=O)OCC` [SZ-023386], for which the EC50 was under 50 nM.

With `C#Cc1cc(F)ccc1[C@@H]1N=C(c2nccs2)NC(CN2CCN3C(=O)N(c4ccc(C(=O)O)c(F)c4)C[C@@H]3C2)=C1C(=O)OCC` [SZ-023388], the EC50 was under 50 nM.

As for `C#Cc1c(F)cccc1[C@@H]1N=C(c2nccs2)NC(CN2CCN3C(=O)N(c4ccc(C(=O)O)c(F)c4)C[C@@H]3C2)=C1C(=O)OCC` [SZ-023390], the EC50 is under 50 nM.

Take `C#Cc1cc(F)ccc1[C@@H]1N=C(c2nccs2)NC(CN2CCN3C(=O)N(CC(C)(C)CC(=O)O)C[C@@H]3C2)=C1C(=O)OCC` [SZ-023392]: the EC50 is under 50 nM.

Still in this test, the particulars now being: Hepatitis B virus, HepG2.2.15, 72 h.
For the compound `C#Cc1cc(F)ccc1C1N=C(c2nccs2)NC(CN2[C@@H]3C[C@H](CC(=O)O)C[C@H]2C(F)(F)C3)=C1C(=O)OCC` (mixture of isomers) [SZ-023091RAC], the EC50 was under 50 nM.

For `C#Cc1c(F)cccc1[C@@H]1N=C(c2nccs2)NC(CN2[C@@H]3C[C@H](CC(=O)O)C[C@H]2C(F)(F)C3)=C1C(=O)OCC` [SZ-023085C], the EC50 was under 50 nM.

Take `C#Cc1cc(F)ccc1[C@@H]1N=C(c2nccs2)NC(CN2[C@@H]3CC(CC(=O)O)C[C@H]2C(F)(F)C3)=C1C(=O)OCC` (some centres unmarked) [SZ-023091C]: the EC50 is under 50 nM.
